Test results reported in patent publication US12570695B2, “Bicyclic peptide ligands specific for EphA2” (priority 2019, dated 2026).
Starred links: 1 amine or outer side, 2 acyl side, 3 side chain; linkers in the order of their positions; H or OH if unused. Positions of bridges follow the written chain, without caps; N, C: chain ends. Non-standard residues stand in square brackets, D forms with d. Residues, ends and D or L forms follow the SMILES beside them. TATA = O=C(CC[*:1])N1CN(C(=O)CC[*:2])CN(C(=O)CC[*:3])C1; Ala(4-thiazolyl) = N[C@@H](Cc1cscn1)C(=O)O; Hyp = O=C(O)[C@@H]1C[C@@H](O)CN1; hArg = N=C(N)NCCCC[C@H](N)C(=O)O; dNle = CCCC[C@@H](N)C(=O)O; Nle = CCCC[C@H](N)C(=O)O

Biological target: human EphA2 (Homo sapiens, UniProt P29317)
Assay: biochemical
Method: Peptides without a fluorescent tag were tested in competition with a peptide with a fluorescent tag and a known Kd.
Peptides were diluted to an appropriate concentration in assay buffer as described in the direct binding assay with a maximum of 5% DMSO, then serially diluted 1 in 2. […] Measurements were conducted, however the gain was determined prior to the first measurement. Data analysis was in Systat Sigmaplot version 12.0 where the mP values were fit to a user defined cubic equation to generate a Ki value:
“Lig”, “KLig” and “Prot” were all defined values relating to: fluorescent peptide concentration, the Kd of the fluorescent peptide and EphA2 concentration respectively.

human EphA2, sequence (P29317 24-976): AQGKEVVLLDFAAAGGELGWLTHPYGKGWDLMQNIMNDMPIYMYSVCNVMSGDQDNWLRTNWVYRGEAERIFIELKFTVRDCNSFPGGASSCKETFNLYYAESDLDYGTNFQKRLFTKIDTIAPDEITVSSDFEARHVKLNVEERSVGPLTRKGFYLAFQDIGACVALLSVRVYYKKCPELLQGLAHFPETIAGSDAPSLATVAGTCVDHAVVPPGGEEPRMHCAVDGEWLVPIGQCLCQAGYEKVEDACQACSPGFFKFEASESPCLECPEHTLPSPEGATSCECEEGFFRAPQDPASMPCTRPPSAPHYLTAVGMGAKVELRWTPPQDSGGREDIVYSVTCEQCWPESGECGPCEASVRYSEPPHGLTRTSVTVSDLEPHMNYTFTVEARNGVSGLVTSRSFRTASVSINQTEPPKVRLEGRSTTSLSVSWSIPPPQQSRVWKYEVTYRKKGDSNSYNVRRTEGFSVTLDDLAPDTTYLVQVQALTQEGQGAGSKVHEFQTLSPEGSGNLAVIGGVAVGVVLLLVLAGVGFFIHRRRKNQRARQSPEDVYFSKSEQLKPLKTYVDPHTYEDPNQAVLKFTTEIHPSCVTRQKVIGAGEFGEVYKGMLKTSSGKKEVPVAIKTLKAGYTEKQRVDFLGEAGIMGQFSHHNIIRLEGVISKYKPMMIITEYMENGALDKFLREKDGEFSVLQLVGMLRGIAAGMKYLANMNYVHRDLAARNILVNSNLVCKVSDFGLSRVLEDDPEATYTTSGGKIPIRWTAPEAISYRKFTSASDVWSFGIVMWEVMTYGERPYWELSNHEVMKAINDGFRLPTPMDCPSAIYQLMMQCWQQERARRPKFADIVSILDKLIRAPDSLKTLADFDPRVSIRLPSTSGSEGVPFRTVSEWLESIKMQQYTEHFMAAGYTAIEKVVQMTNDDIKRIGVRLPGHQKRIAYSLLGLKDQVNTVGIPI

SMILES	Ki [nM]
CCCC[C@H]1NC(=O)[C@@H]2CCCN2C(=O)[C@H](Cc2c[nH]cn2)NC(=O)[C@H](CC(C)C)NC(=O)[C@@H]2CSCCC(=O)N3CN(CN(C3)C(=O)CCSC[C@H](NC(=O)[C@H](CC(=O)O)NC(=O)[C@H](CCCCNC(=N)N)NC(=O)[C@H](C)N)C(=O)N3C[C@H](O)C[C@H]3C(=O)N[C@@H](CC(C)C)C(=O)N[C@@H](C(C)C)C(=O)N[C@@H](CC(N)=O)C(=O)N3CCC[C@H]3C(=O)N[C@@H](CC(C)C)C(=O)N2)C(=O)CCSC[C@@H](C(N)=O)NC(=O)[C@H](CCCCNC(=N)N)NC(=O)[C@H](Cc2c[nH]c3ccccc23)NC1=O [BCY13134, A-[HArg]-D-Ci[HyP]LVNPLCiiLHP[dNle]W[HArg]Ciii] (H-A[hArg]DC[Hyp]LVNPLCLHP[dNle]W[hArg]C-NH2; linker 4-11-18 via TATA; N-terminus and C-terminus assumed)	1.16
CCCC[C@@H]1NC(=O)[C@H](CC(C)C)NC(=O)[C@@H]2CSCCC(=O)N3CN(CN(C3)C(=O)CCSC[C@H](NC(=O)[C@H](CC(=O)O)NC(=O)[C@H](CCCCNC(=N)N)NC(=O)[C@H](C)N)C(=O)N3C[C@H](O)C[C@H]3C(=O)N[C@@H](CC(C)C)C(=O)N[C@@H](C(C)C)C(=O)N[C@@H](CC(N)=O)C(=O)N3CCC[C@H]3C(=O)N[C@@H](CC(C)C)C(=O)N2)C(=O)CCSC[C@@H](C(N)=O)NC(=O)[C@H](CCCCNC(=N)N)NC(=O)[C@H](Cc2c[nH]c3ccccc23)NC(=O)[C@@H](CC(=O)O)NC(=O)[C@@H]2CCCN2C1=O [BCY13135, A-[HArg]-D-Ci[HyP]LVNPLCiiL[Nle]P[dD]W[HArg]Ciii] (H-A[hArg]DC[Hyp]LVNPLCL[Nle]P[dD]W[hArg]C-NH2; linker 4-11-18 via TATA; N-terminus and C-terminus assumed)	0.894
CC(C)C[C@@H]1NC(=O)[C@@H]2CSCCC(=O)N3CN(CN(C3)C(=O)CCSC[C@H](NC(=O)[C@H](CC(=O)O)NC(=O)[C@H](CCCCNC(=N)N)NC(=O)[C@H](C)N)C(=O)N3C[C@H](O)C[C@H]3C(=O)N[C@@H](CC(C)C)C(=O)N[C@@H](C(C)C)C(=O)N[C@@H](CC(N)=O)C(=O)N3CCC[C@H]3C(=O)N[C@@H](CC(C)C)C(=O)N2)C(=O)CCSC[C@@H](C(N)=O)NC(=O)[C@H](CCCCNC(=N)N)NC(=O)[C@H](Cc2c[nH]c3ccccc23)NC(=O)[C@@H](CC(=O)O)NC(=O)[C@@H]2CCCN2C(=O)[C@H](Cc2cscn2)NC1=O [BCY13919, A[HArg]DCi[HyP]LVNPLCiiL[4ThiAz]P[dD]W[HArg]Ciii] (H-A[hArg]DC[Hyp]LVNPLCL[Ala(4-thiazolyl)]P[dD]W[hArg]C-NH2; linker 4-11-18 via TATA; N-terminus and C-terminus assumed)	2.1
CC(C)C[C@@H]1NC(=O)[C@@H]2CSCCC(=O)N3CN(CN(C3)C(=O)CCSC[C@H](NC(=O)[C@H](CC(=O)O)NC(=O)[C@H](CCCCNC(=N)N)NC(=O)[C@H](C)N)C(=O)N3C[C@H](O)C[C@H]3C(=O)N[C@@H](CC(C)C)C(=O)N[C@@H](C(C)C)C(=O)N[C@@H](CC(N)=O)C(=O)N3CCC[C@H]3C(=O)N[C@@H](CC(C)C)C(=O)N2)C(=O)CCSC[C@@H](C(N)=O)NC(=O)[C@H](CCCCNC(=N)N)NC(=O)[C@H](Cc2c[nH]c3ccccc23)NC(=O)[C@@H](CC(=O)O)NC(=O)[C@@H]2CCCN2C(=O)[C@H](Cc2ccccc2)NC1=O [BCY13920, A[HArg]DCi[HyP]LVNPLCiiLFP[dD]W[HArg]Ciii] (H-A[hArg]DC[Hyp]LVNPLCLFP[dD]W[hArg]C-NH2; linker 4-11-18 via TATA; N-terminus and C-terminus assumed)	0.641
